In US9839618B2, “Compositions and methods relating to proliferative diseases” (The Penn State Research Foundation, priority 2010, dated 2017):

Tests used:
[1] = tested on: melanoma cell lines (UACC 903, 1205Lu); experiment: MTS assay, melanoma cell lines (cell line not given); format: cell-based, human; details: UACC 903 and 1205 Lu
Procedure: (§1) The mechanistic basis of leelamine's activity to inhibit melanoma cell growth is determined by examining the effect of leelamine on 1) cell viability using the MTS assay; 2) proliferation using a BrdU incorporation assay; 3) apoptosis using an assay for caspase-3/7 activity; and 4) cell cycle analysis. The MTS assay as described in Sharma, A. et al., Clin Cancer Res, 2009, 15:1674-85; and Madhunapantula, S. V. et al., Mol Cancer Ther, 2008, 7:1297-308 is used to assay cell viability. Rates of proliferation and apoptosis are measured by seeding 5×10^3 cells in 96-well plates, followed by treatment with 0.62 to 10 μmol/L of leelamine for 24 hours. Proliferating and apoptotic cells are quantified using a colorimetric cell proliferation ELISA BrdU kit (Roche diagnostics, Indianapolis, Ind.) or Apo-ONE Homogenous caspase-3/7 assay kit (Promega, Madison, Wis.), respectively, as described in Sharma, A. et al., Clin Cancer Res, 2009, 15:1674-85; and Madhunapantula, S. V. et al., Mol Cancer Ther, 2008, 7:1297-308.
Dehydroabietylamine, its N-substituted derivatives and the corresponding dihydroabietylamine and its N-substituted derivatives are tested for their capability to inhibit cell growth of cancer cell lines, including melanoma (UACC 903, 1205Lu), breast (MCF-7), fibrosarcoma (HT-1080), colon (Caco-2), and prostate (PC-3) cancer cell lines. Viability and IC50 of normal human fibroblasts and cell lines from melanoma and other malignancies following treatment with all the agents are measured using the MTS assay (Promega, Madison, Wis.). Human fibroblast FF2441 cells, metastatic melanoma cell lines 1205 Lu and UACC 903 as well as cancer cell lines representing sarcoma (HT-1080), prostate (PC-3, LNCaP), breast (MCF-7) and lung (A-549) are maintained in DMEM (Invitrogen, Carlsbad, Calif.) supplemented with 10% FBS (Hyclone, Logan, Utah) in a 5% CO2 atmosphere, humidified 37° C. incubator. 5×10^3 cells per well in 100 μL of media are plated and grown in a 96-well plate for 48 to 72 h and treated with either DMSO vehicle control or 0.62 to 40 μmol/L for 24, 48 or 72 h. IC50 values for each compound in […] for respective cell lines are measured from three independent experiments using GraphPad Prism version 4.01 (GraphPad Software, La Jolla, Calif.). FIG. 52 is a graph showing IC50 values for leelamine and compounds 4a, 4b and 5a in treated fibroblasts (FF2441) compared to melanoma cells. Selectivity ratio here is defined as ratio of activity against fibroblasts compared to activity against melanoma cells. Leelamine is relatively selective with a ratio of >6 and >4 for UACC903 and 1205Lu melanoma cells. The selectivity ratio of compound 4a is ˜4 and ˜3 for UACC903 and 1205Lu and for compound 4b is ˜4 for both cell lines. The selectivity ratio of compound 5a is ˜4 for UACC903 and >2 for 1205Lu cells.

[2] = tested on: non-melanoma cancer cell lines; experiment: MTS assay, leelamine on non-melanoma cancer cell lines; format: cell-based; details: breast, lung, prostate, connective tissue, pancreas, colon lines
Procedure: The efficacy of leelamine to kill other cancer types is measured and the IC50 for cell lines derived from carcinomas of breast, lung, prostate, connective tissue, pancreas and colon determined. The MTS assay as described in Sharma, A. et al., Clin Cancer Res, 2009, 15:1674-85; and Madhunapantula, S. V. et al., Mol Cancer Ther, 2008, 7:1297-308 is used to establish the IC50 at 24, 48 and 72 hours of leelamine treatment for normal human epidermal melanocytes (FOM103), normal skin fibroblast cells (FF2441), normal skin keratinocytes (HFK) and compared to melanocytic lesion cells from the radial-, vertical- and metastatic melanoma stages. 5×10^3 cells per well in 100 μL of media are plated and grown in a 96-well plate for 48 to 72 hours and treated with either DMSO vehicle control or 0.62 to 40 μmol/L of leelamine for 24, 48 or 72 hours. IC50 values for each compound in μmol/L for respective cell lines are measured from three independent experiments using GraphPad Prism version 4.01 (GraphPad Software, La Jolla, Calif.). Leelamine is found to be not toxic to normal cells and effective to kill melanoma cells as well as non-melanoma cancer cells as shown in Table 1 in FIG. 20. Leelamine is 3- to 4-fold more specific at killing metastatic melanoma than normal cells, supporting cancer therapeutic utility at concentrations<2 μmol/L.

[3] = tested on: UACC 903 and 1205 Lu cells; experiment: Caspase-3/7 apoptosis assay; format: cell-based, human; details: 0.62 to 10 μmol/L, 24 hours
Procedure: as §1

[4] = tested on: GFP expressing UACC 903 melanoma cells in skin reconstructs; experiment: Topical treatment of melanoma tumors in skin reconstructs; format: cell-based, human; details: topical 2.5, 5 and 10 uM for 8 days
Procedure: In this example, the effect of leelamine on melanoma tumors developing in skin reconstructs is tested by topical application. Skin reconstructs are generated by mixing GFP expressing UACC 903 melanoma cells with human normal fibroblasts (FF2441) and keratinocytes (HFK) followed by growing in a 37° C. incubator for 7 days. Beginning from day 8, completely developed skins containing melanoma tumors are treated with increasing concentrations of Leelamine (2.5, 5 and 10 uM in 200 uL PBS) or PBS vehicle alone for an additional 8 more days. The sizes of developing tumors, in terms of area occupied by GFP are measured. […] Also shown in FIG. 22 are images of control and treated cells.

[5] = tested on: cell lines established from melanocytic lesions or melanomas; experiment: MTS assay, leelamine on melanocytic lesion and melanoma cell lines; format: cell-based; details: 72 hour exposure; read-out: concentration to kill 50% of cells
Procedure: The efficacy of leelamine to kill other cancer types is measured and the IC50 for cell lines derived from carcinomas of breast, lung, prostate, connective tissue, pancreas and colon determined. The MTS assay as described in Sharma, A. et al., Clin Cancer Res, 2009, 15:1674-85; and Madhunapantula, S. V. et al., Mol Cancer Ther, 2008, 7:1297-308 is used to establish the IC50 at 24, 48 and 72 hours of leelamine treatment for normal human epidermal melanocytes (FOM103), normal skin fibroblast cells (FF2441), normal skin keratinocytes (HFK) and compared to melanocytic lesion cells from the radial-, vertical- and metastatic melanoma stages. […] IC50 values for each compound in μmol/L for respective cell lines are measured from three independent experiments using GraphPad Prism version 4.01 (GraphPad Software, La Jolla, Calif.). […]
5×10^3 cells per well in 100 μL of media are plated and grown in a 96-well plate for 48 to 72 hours and treated with either DMSO vehicle control or 0.62 to 40 μmol/L of leelamine for 24, 48 or 72 hours. IC50 values for each compound in μmol/L for respective cell lines are measured from three independent experiments using GraphPad Prism version 4.01 (GraphPad Software, La Jolla, Calif.).

Row | IC50 [2] [nM] | SMILES | anti-cancer activity / viability of melanoma cell lines, in words [1] | apoptosis (caspase-3/7 activity) [3] | melanoma tumor growth in skin reconstructs (GFP area) [4] | IC50 [5] [nM]
1 | – | CC(C)C1=CC2=CCC3[C@](C)(CCC[C@@]3(C)C(=O)O)C2CC1 (stereo partly drawn) [Abietic acid, (1R,4aR)-1,4a-dimethyl-7-(propan-2-yl)-1,2,3,4,4a,4b,5,6,10,10a-decahydrophenanthrene-1-carboxylic acid, reference compound] | no anti-cancer activity | – | – | –
2 | 1000 to 10000 | CC(C)c1ccc2c(c1)CCC1[C@](C)(CN)CCC[C@]21C (stereo partly drawn) [Leelamine, [(1R,4aS)-1,4a-dimethyl-7-(propan-2-yl)-1,2,3,4,4a,9,10,10a-octahydrophenanthren-1-yl]methanamine] | effectively inhibits the viability | increase apoptosis | inhibits melanoma tumor growth | 1000 to 3000
